Entries after “also recorded” stand apart in the source; their conditions may differ.
Experiments:
PPAR beta/delta = target: T1, PPAR beta/delta (Homo sapiens, UniProt Q03181); assay: Agonist-induced transcriptional activity, luciferase reporter in WPMY-1 cells; format: cell-based; settings: human WPMY-1 myofibroblasts, 500 nM substance, 500 nM agonist L165041
T1 construct: expressed in transfected cells; host or cells: WPMY-1 human myofibroblasts, transient transfection with PEI
T1 sequence (Q03181 1-441): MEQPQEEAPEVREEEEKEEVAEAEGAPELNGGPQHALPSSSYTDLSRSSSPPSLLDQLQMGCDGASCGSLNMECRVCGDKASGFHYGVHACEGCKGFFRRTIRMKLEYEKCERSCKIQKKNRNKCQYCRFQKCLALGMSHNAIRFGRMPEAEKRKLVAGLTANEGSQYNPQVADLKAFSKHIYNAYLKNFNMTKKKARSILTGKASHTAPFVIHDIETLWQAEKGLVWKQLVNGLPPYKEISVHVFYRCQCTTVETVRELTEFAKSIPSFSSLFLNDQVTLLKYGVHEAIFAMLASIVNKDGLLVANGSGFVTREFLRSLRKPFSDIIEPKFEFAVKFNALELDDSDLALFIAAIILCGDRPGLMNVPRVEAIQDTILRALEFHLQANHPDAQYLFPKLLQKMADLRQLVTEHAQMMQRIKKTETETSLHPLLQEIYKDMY
Procedure: FIG. 4: Effect of the substances of this invention comparative compound (CC) 2, compound 1, compound 5, compound 2 and compound 3 on the agonist-induced transcriptional activity of PPAR subtypes alpha (A), beta/delta (B) and gamma (C). • WPMY-1 cells are transiently transfected with a luciferase reporter plasmid. Four hours after transfection, cells are treated for 48 hours with the respective antagonist (500 nM), followed by a treatment with 300 nM of PPAR alpha agonist GW7647 (A), 500 nM of PPAR beta/delta agonist L165041 (B) or 300 nM of PPAR gamma agonist GW1929 (C). The relative induction is represented by the luciferase activity of the agonist-treated transfected cells in relation to solvent-treated transfected cells. Asterisks (**, *) indicate significant differences to untreated cells (after t-test; **: p<0.01; *: p<0.05). GW7647 is commercially available from Sigma-Aldrich (Steinheim, Germany). L165041 and GW1929 can be obtained from Biozol (Eching, Germany).
D) The influence of substances of this invention on the agonist-induced transcriptional activity of PPAR subtypes alpha, beta/delta or gamma is determined in WPMY-1 myofibroblasts transfected transiently with a luciferase reporter plasmid (LexA system) using polyethyleneimine (PEI) according to a method known to the expert. As agonists, substances GW7647 for PPAR alpha or L165041 for PPAR beta/delta or GW1929 for PPAR gamma known to the expert are used. WPMY-1 myofibroblast cells are initially cultured for example in a 12-well plate in DMEM medium (DMEM: Dulbecco's Modified Eagle Medium) according to a method known to the expert and to a confluence of 70% to 80%, and subsequently transfected with 2.5 μg of plasmid-DNA containing the luciferase reporter plasmid, expression plasmids for the respective PPAR subtypes and the Renilla-luciferase plasmid pRL-SV40 (Promega, Mannheim, Germany), and 2.5 μl PEI (1:1000 dilution, pH 7). Four hours after transfection, the cells are treated for 48 hours with 500 nM of the substances of this invention, and 24 later with 300 nM (GW7647 or GW1929, respectively) or 500 nM (L165041) of the respective agonist at 37° C. and 5% CO2 in an incubator. The luciferase assay is performed 48 hours after the first treatment according to the commercial method of the “dual-well-system” (pjk GmbH, Kleinblittersdorf, Germany), whereby for a normalization, not only the luciferase-, but also the Renilla activity is measured. Cells are initially lysed for this measurement, and 20 μl of the lysate is transferred into a white 96-well plate (Fisher Scientific, Hamburg, Germany). […] Mean values and standard deviation are calculated from values of three independent measurements.

GST-PPAR beta/delta LBD = target: T2, GST-PPAR beta/delta LBD (Homo sapiens, UniProt Q03181); assay: Competitive in vitro ligand binding, TR-FRET, displacement of Fluormone Pan-PPAR-Green; settings: fluorescence ratio 520 nm/495 nm
T2 construct: GST-PPAR beta/delta LBD (GST=glutathione S-transferase); purchased Invitrogen, Darmstadt, Germany
T2 sequence (Q03181 211-439 limits assumed): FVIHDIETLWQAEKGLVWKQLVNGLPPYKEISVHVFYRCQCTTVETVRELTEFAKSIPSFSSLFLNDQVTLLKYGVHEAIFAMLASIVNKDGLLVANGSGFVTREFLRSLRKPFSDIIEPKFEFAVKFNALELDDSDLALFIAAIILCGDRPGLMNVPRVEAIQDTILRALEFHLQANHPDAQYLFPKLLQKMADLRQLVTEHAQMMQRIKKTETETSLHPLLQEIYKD
Procedure: FIG. 1: Competitive in vitro ligand binding to PPAR beta/delta. • The displacement of ligand Fluormone® Pan-PPAR Green from recombinant GST-PPAR beta/delta ligand binding domain (LBD) by the substances of the present invention comparative compound (CC) 2, compound 1 (A), compound 2 (B), and compound 3 (C), compound 4 (D), compound 5 (E) is determined by TR-FRET analysis. Shown is the ratio of fluorescence intensity at 520 nm (fluorescein emission, excited by terbium emission) and 495 nm (terbium emission). All data points represent average values of triplicates (+/−standard deviation).
A) Competitive ligand-binding of the substances of this invention was measured in vitro using time-resolved fluorescence resonance energy transfer (TR-FRET) by competition with the commercially available fluorescent Fluormone® Pan-PPAR-Green for binding to the fusion protein GST-PPAR beta/delta LBD (GST=glutathione S-transferase; LBD=ligand binding domain) (Invitrogen, Darmstadt, Germany) in a VICTOR3V Multilabel Counter (WALLAC 1420; PerkinElmer Life and Analytical Sciences, Rodgau, Germany). The measurement was performed in 100 mM KC, 20 mM Tris pH 7.9, 0.01% Triton X100 and 1 μg/μL bovine serum albumin. GST is known to the expert in the field as suitable fusion partner for proteins. For this purpose, the ratio of fluorescence intensities at 520 nm (fluorescein emission excited by terbium emission) and at 495 nm (terbium emission) is determined.

SMILES | agonist-induced transcriptional activity of PPAR beta/delta (luciferase induction) (PPAR beta/delta) | competition with Fluormone Pan-PPAR-Green for binding to GST-PPAR beta/delta LBD (GST-PPAR beta/delta LBD)
CCCCCCNc1ccc(NS(=O)(=O)c2ccsc2C(=O)OC)c(OC)c1 [compound 1, methyl 3-(N-(4-(hexylamino)-2-methoxyphenyl)sulfamoyl)thiophene-2-carboxylate] | inhibited in a PPAR subtype-specific manner | significant competition efficacy; also recorded: significant competition efficiency
CCCCCCNc1ccc(NS(=O)(=O)c2ccsc2C(=O)OC)cc1OC [compound 2, methyl 3-(N-(4-(hexylamino)-3-methoxyphenyl)sulfamoyl)thiophene-2-carboxylate] | inhibited in a PPAR subtype-specific manner | significant competition efficacy; also recorded: significant competition efficiency
COC(=O)c1sccc1S(=O)(=O)Nc1ccc(NC(C)(C)C)cc1OC [compound 5, methyl 3-(N-(4-(tert-butylamino)-2-methoxyphenyl)sulfamoyl)thiophene-2-carboxylate] | inhibited in a PPAR subtype-specific manner | significant competition efficacy; also recorded: significant competition efficiency
